Patent US12655101B2, “Small molecules with antibacterial activity” (NEW MEXICO TECH UNIVERSITY RESEARCH PARK CORPORATION, priority 2021, dated 2026)

Legend:
Format in all cases: cell-based
A. baumannii ATCC 15151 [1] = assay: Filamentation with ciprofloxacin and Compound 25 on A. baumannii; details: for cell morphology and growth: 18 hours
Protocol: A. baumannii ATCC 15151: […] The culture tubes were incubated for 18 hours at 37° C. After 18 hours incubation, took 3 μL of cells from each well and plated on microscope slide to observe the following: […]

A. baumannii ATCC 15151 [2] = assay: Synergy of kanamycin and Compound 25, colony counts
Protocol: Bacterial cells were prepared using methods described above. 500 μL aliquots of the adjusted bacterial cell suspensions were placed into borosilicate glass tubes, where the cell suspensions were treated with 12.5 μg/mL kanamycin, 1 μM or 2 μM Compound 25, or a combination of 12.5 μg/mL kanamycin plus 1 μM or 2 μM Compound 25. The culture tubes were incubated for 18 hours at 37° C. Colony counts were performed by 10-fold serially diluting the samples into fresh MHB and drip-streaking 10 μL from each dilution series onto MHA. The plates were incubated at 37° C. for 18 hours before the CFU/mL were determined by visual cell counts.
A. baumannii ATCC 15151 was grown from a glycerol stock by placing a small volume of cells onto a MHA plate. The MHA plate was incubated overnight at 37° C. A single colony was subsequently used to inoculate MHB to obtain a bacterial broth suspension. The MHB broth suspension was grown at 37° C. on a rotary shaking incubator (100 rpm) for 12 hours. The bacterial cell concentration was adjusted to ˜5×10^5 CFU/mL in MHB or MHB+40% FBS using OD at 595 nm. 500 μL aliquots of the adjusted bacterial cell suspensions were placed into borosilicate glass tubes. Cell suspensions were treated with 6 μg/mL or 12.5 μg/mL kanamycin, 1 μM, 2 μM, or 10 μM Compound 25, or a combination of 6 μg/mL or 12.5 μg/mL […] plus 1 μM, 2 μM, or 10 μM Compound 25. The culture tubes were incubated for 18 hours at 37° C. Colony counts were determined by 10-fold serially diluting the samples into fresh MHB and drip-streaking 10 μL from each dilution series onto MHA. The plates were incubated at 37° C. for 18 hours before the CFU/mL were determined by visual cell counts.

[3] = test system: A. baumannii ATCC BAA-1797; assay: Synergy of gentamicin and Compound 25, colony counts; details: 18 hours
Protocol: Cells were cultured using methods described above. 500 μL of the adjusted bacterial cell suspensions were placed into borosilicate glass tubes, where the cell suspensions were treated with 100 μg/mL gentamicin, 2 μM Compound 25, or a combination of 100 μg/mL gentamicin plus 2 μM Compound 25. The culture tubes were incubated for 18 hours at 37° C. Colony counts were performed by 10-fold serially diluting the samples into fresh MHB and drip-streaking 10 μL from each dilution series onto MHA. The plates were incubated at 37° C. for 18 hours before the CFU/mL were determined by visual cell counts.
500 μL aliquots of the adjusted bacterial cell suspensions were placed into borosilicate glass tubes, where the cell suspensions were treated with 50 μg/mL gentamicin, 2 μM Compound 25, or a combination of 50 μg/mL gentamicin plus 2 μM Compound 25. The culture tubes were incubated for 18 hours at 37° C.

H. pylori Hp A-4 = assay: Direct comparison of Compound 26 in 5% FBS on H. pylori and A. baumannii
Protocol: A direct comparison of Compound 26 in 5% […] on H. pylori Hp A-4 and A. baumannii BAA-1797 was performed. The conditions were standard liquid culture conditions for each organism in 5% FBS. A lawn of H. pylori Hp A-4 on a blood agar plate was prepared. 1 μL of Compound 26 at various concentrations and 1 μL of 100% sterile DMSO were spotted on the blood agar plate. The plate was incubated for 4 days at 37° C. in 5% CO2.

E. coli pUC18 = assay: Nitrocefin β-lactamase assay (outer membrane disruption); details: 10 μM melittin; 10 μg/mL PME; 6, 12, 24 μM Compound 25 and 26; 100 μM Compound 27; 50 μM Compound 15; 30 minutes
Protocol: E. coli pUC18 was grown from a glycerol stock by placing a small volume of cells onto a MHA plate. The MHA plate was incubated overnight at 37° C. A single colony was subsequently used to inoculate MHB+100 μg/mL ampicillin to obtain a bacterial broth suspension. The MHB broth suspension was grown at 37° C. on a rotary shaking incubator (100 rpm) for 12 hours. The cells were washed 3× by centrifuging and washing with 1 mL medium 200. The washed bacterial cell concentration was adjusted to ˜1×10^7 CFU/mL in medium 200 using OD at 595 nm. The cells were treated cells with 10 μM melittin; 6, 12, 24 μM Compound 25; 6 μM, 12 μM, 24 μM Compound 26; 100 μM Compound 27; 50 μM Compound 15; and 10 μg/mL PME. The cells were incubated at 37° C. for 30 minutes; added 50 μM nitrocefin and incubated 10 minutes at 37° C.
pUC18 E. coli carry an ampicillin resistance gene and produce β-lactamase.

[4] = […] Compound 25+50 ng/mL ciprofloxacin

In the case of `Brc1ccc(N/N=C/c2c[nH]c3cccc(OCc4ccccc4)c23)cc1.Cl` [Compound 25, (E)-2-((4-(benzyloxy)-1H-indol-3-yl)methylene)-1-(4-bromophenyl)hydrazin-1-ium chloride], the “inhibition of ciprofloxacin-induced filamentation” value (A. baumannii ATCC 15151 [1]; [4]) is reported as “only slightly inhibited”, the “cell morphology and growth” value (A. baumannii ATCC 15151 [1]; [4]) is reported as “elongated in morphology and growth inhibition was observed” and the “cell morphology and growth” value (A. baumannii ATCC 15151 [1]; single agent: 50 ng/mL ciprofloxacin or […] Compound 25) is reported as “morphologically normal and full growth was observed”. The “synergy, logs of kill” value (A. baumannii ATCC 15151 [2]; 12.5 μg/mL kanamycin+1 μM Compound 25, 18 hours) was 2.5 logs of kill, the “synergy, full cell death” value (A. baumannii ATCC 15151 [2]; 12.5 μg/mL kanamycin+2 μM Compound 25, 18 hours) was 9 orders of magnitude and the “synergy, logs of kill” value (A. baumannii ATCC 15151 [2]; 40% FBS, 12.5 μg/mL kanamycin+10 μM Compound 25) was 9 logs of kill. The “synergy, logs of kill” value (A. baumannii ATCC 15151 [2]; without serum, 6 μg/mL kanamycin+2 μM Compound 25) was 8 logs of kill, the “synergy, full cell death” value ([3]; 50 μg/mL gentamicin+2 μM Compound 25) was 4 orders of magnitude and the “synergy, full cell death” value ([3]; 100 μg/mL gentamicin+2 μM Compound 25) was 8 orders of magnitude.

For `Cl.Clc1ccc(N/N=C/c2c[nH]c3cccc(OCc4ccccc4)c23)cc1` [Compound 26, (E)-2-((4-(benzyloxy)-1H-indol-3-yl)methylene)-1-(4-chlorophenyl)hydrazin-1-ium], the “increase in anti-bacterial activity for H. pylori compared to A. baumannii” value (H. pylori Hp A-4) was 16.6 fold.

In the case of `Cl.Fc1ccc(N/N=C/c2c[nH]c3cccc(OCc4ccccc4)c23)cc1` [Compound 27, (E)-2-((4-(benzyloxy)-1H-indol-3-yl)methylene)-1-(4-fluorophenyl)hydrazin-1-ium], the “outer membrane disruption (β-lactamase leakage, nitrocefin colour)” value (E. coli pUC18) is reported as “caused outer membrane disruption”.
